Experimental findings from patent publication US7572793B2, “3-Substituted-4-pyrimidone derivatives” (Mitsubishi Tanabe Pharma Corporation, priority 2001, dated 2009) are described below.

In general, IC50 refers to the midpoint of a concentration-inhibition curve.

The experiment deals with T1, bovine cerebral TPK1 (Bos taurus, UniProt A0A3Q1MT31).
T1 construct: from tissue; host or cells: bovine brain (cerebrum)
T1 sequence (A0A3Q1MT31 1-419): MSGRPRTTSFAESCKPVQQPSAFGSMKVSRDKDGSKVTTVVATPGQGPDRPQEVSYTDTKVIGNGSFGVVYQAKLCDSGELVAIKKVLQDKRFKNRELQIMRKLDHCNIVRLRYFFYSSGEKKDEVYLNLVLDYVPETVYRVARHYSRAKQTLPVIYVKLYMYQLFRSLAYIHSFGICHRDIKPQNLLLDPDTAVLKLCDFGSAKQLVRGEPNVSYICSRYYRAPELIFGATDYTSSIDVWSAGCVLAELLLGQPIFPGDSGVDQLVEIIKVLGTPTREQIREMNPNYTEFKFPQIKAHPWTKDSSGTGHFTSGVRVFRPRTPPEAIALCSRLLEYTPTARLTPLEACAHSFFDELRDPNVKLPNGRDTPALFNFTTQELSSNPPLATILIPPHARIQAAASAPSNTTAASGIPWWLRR
As to the kind of experiment: Inhibitory activity against P-GS1 phosphorylation by bovine cerebral TPK1. It counts as biochemical. Conditions: 41.7 μM [γ-32P]ATP, 25° C., 2 hours, pH 6.5. Here is the method: Inhibitory Activity of the Medicament of the Present Invention Against P-GS1 Phosphorylation by Bovine Cerebral TPK1
A mixture containing 100 mM MES-sodium hydroxide (pH 6.5), 1 mM magnesium acetate, 0.5 mM EGTA, 5 mM β-mercaptoethanol, 0.02% Tween 20, 10% glycerol, 12 μg/ml P-GS1, 41.7 μM [y-^32P] ATP (68 kBq/ml), bovine cerebral TPK1 and a compound shown in Table (a final mixture contained 1.7% DMSO deriving from a solution of a test compound prepared in the presence of 10% DMSO) was used as a reaction system. The phosphorylation was started by adding ATP, and the reaction was conducted at 25° C. for 2 hours, and then stopped by adding 21% perchloric acid on ice cooling. The reaction mixture was centrifuged at 12,000 rpm for 5 minutes and adsorbed on P81 paper (Whatmann), and then the paper was washed four times with 75 mM phosphoric acid, three times with water and once with acetone. The paper was dried, and the residual radioactivity was measured using a liquid scintillation counter. […] PHF formation, and that the medicaments of the present invention are effective for preventive and/or therapeutic treatment of Alzheimer disease and the above-mentioned diseases.
On to `Cn1c(N2CCOC(c3cccc(N4CCCC4)c3)C2)nc(-c2ccncn2)cc1=O` (single isomer, unassigned) [Compound B275], for which the IC50 is 7 nM. Under `Cn1c(N2CCOC(c3cccc(N4CCCC4)c3)C2)nc(-c2ccncn2)cc1=O` (single isomer, unassigned) [Compound B276] stands 4.8 nM; under `Cn1c(N2CCOC(C(=O)c3ccccc3)C2)nc(-c2ccncn2)cc1=O` (single isomer, unassigned) [Compound C789], 38 nM; under `Cn1c(N2CCOC(C(=O)c3ccccc3)C2)nc(-c2ccncn2)cc1=O` (single isomer, unassigned) [Compound C790], 0.64 nM. `Cn1c(NCC(=O)c2ccccc2)nc(-c2ccncn2)cc1=O` [Compound A119] yielded an IC50 of 24 nM. `Cn1c(NCC(=O)c2cccc(F)c2)nc(-c2ccncn2)cc1=O` [Compound A121] registered an IC50 of 19 nM. Under `Cn1c(NCC(=O)c2cccc(Cl)c2)nc(-c2ccncn2)cc1=O` [Compound A124] stands 11 nM; under `Cc1cccc(C(=O)CNc2nc(-c3ccncn3)cc(=O)n2C)c1` [Compound A130], 30 nM. `Cn1c(N2CCOC(c3ccc(F)cc3)C2)nc(-c2ccncn2)cc1=O` (stereo not shown) [Compound B030] registered an IC50 of 11 nM. `Cn1c(N2CCO[C@@H](c3ccc(F)cc3)C2)nc(-c2ccncn2)cc1=O` [Compound B031, (S)-2-[2-(4-fluorophenyl)morpholin-4-yl]-3-methyl-6-pyrimidin-4-yl-3H-pyrimidin-4-one] displayed an IC50 of 5 nM. `Cn1c(N2CCO[C@H](c3ccc(F)cc3)C2)nc(-c2ccncn2)cc1=O` [Compound B032] gave an IC50 of 32 nM. In the case of `Cn1c(N2CCO[C@@H](c3ccccc3F)C2)nc(-c2ccncn2)cc1=O` [Compound B037], half-maximal inhibition (IC50) required 3 nM.

Regarding `COc1ccc([C@H]2CN(c3nc(-c4ccncn4)cc(=O)n3C)CCO2)cc1` [Compound B079, (S)-2-[2-(4-Methoxyphenyl)morpholin-4-yl]-3-methyl-6-pyrimidin-4-yl-3H-pyrimidin-4-one], the IC50 is 2.9 nM. Turning to `COc1cccc([C@H]2CN(c3nc(-c4ccncn4)cc(=O)n3C)CCO2)c1` [Compound B082], the IC50 worked out at 4.6 nM. `COc1ccccc1C1CN(c2nc(-c3ccncn3)cc(=O)n2C)CCO1` (stereo not shown) [Compound B084] returned an IC50 of 1.2 nM. Consider `COc1ccccc1[C@H]1CN(c2nc(-c3ccncn3)cc(=O)n2C)CCO1` [Compound B085], for which the IC50 is 0.87 nM. Under `COc1cccc(OC)c1C1CN(c2nc(-c3ccncn3)cc(=O)n2C)CCO1` (stereo not shown) [Compound B102] stands 0.441 nM; under `COc1cccc(OC)c1[C@H]1CN(c2nc(-c3ccncn3)cc(=O)n2C)CCO1` [Compound B103], 0.23 nM; under `COc1cccc(OC)c1[C@@H]1CN(c2nc(-c3ccncn3)cc(=O)n2C)CCO1` [Compound B104], 4.5 nM. With `Cn1c(N2CCOC(c3c(Cl)cccc3Cl)C2)nc(-c2ccncn2)cc1=O` (stereo not shown) [Compound B105], the IC50 was 0.27 nM. As to `Cn1c(N2CCOC(c3ccc(CN4CCCC4)cc3)C2)nc(-c2ccncn2)cc1=O` (stereo not shown) [Compound B112], 2.1 nM corresponded to half-maximal inhibition (IC50). Under `Cn1c(N2CCOC(c3ccccc3OCC3CC3)C2)nc(-c2ccncn2)cc1=O` (stereo not shown) [Compound B126] stands 23 nM; under `Cn1c(N2CCOC(c3ccc(N4CCCC4)cc3)C2)nc(-c2ccncn2)cc1=O` (stereo not shown) [Compound B140], 3.7 nM; under `COc1ccc(C2CN(c3nc(-c4ccncn4)cc(=O)n3C)CC(C)(C)O2)cc1` (stereo not shown) [Compound B217], 26.1 nM. Take `Cn1c(N2CCOC(c3nc4ccccc4s3)C2)nc(-c2ccncn2)cc1=O` (stereo not shown) [Compound B225]: the IC50 was 12 nM. Under `Cn1c(N2CCOC(c3cccc4c3OCC4)C2)nc(-c2ccncn2)cc1=O` (stereo not shown) [Compound B237] stands 0.821 nM.

The compound `COc1cc(F)ccc1[C@H]1CN(c2nc(-c3ccncn3)cc(=O)n2C)CCO1` [Compound B238] showed an IC50 of 0.47 nM. Take `Cn1c(N2CCOC(c3c(F)cccc3Cl)C2)nc(-c2ccncn2)cc1=O` (stereo not shown) [Compound B239]: the IC50 amounted to 0.74 nM. Under `Cn1c(N2CCOC(c3ccc(F)cc3Cl)C2)nc(-c2ccncn2)cc1=O` (stereo not shown) [Compound B240] stands 3.5 nM; under `CC(C)Oc1cc(F)ccc1C1CN(c2nc(-c3ccncn3)cc(=O)n2C)CCO1` (stereo not shown) [Compound B241], 4.6 nM; under `Cn1c(N2CCOC(c3cc4cc(F)ccc4n3C)C2)nc(-c2ccncn2)cc1=O` (stereo not shown) [Compound B242], 6.9 nM. The compound `Cn1c(N2CCO[C@@H](c3cccc4c3OCC4)C2)nc(-c2ccncn2)cc1=O` [Compound B243] showed an IC50 of 4.2 nM. The compound `COc1cc(F)cc(OC)c1[C@H]1CN(c2nc(-c3ccncn3)cc(=O)n2C)CCO1` [Compound B244] gave an IC50 of 0.17 nM. For `COc1cc(F)cc(OC)c1[C@@H]1CN(c2nc(-c3ccncn3)cc(=O)n2C)CCO1` [Compound B245], the concentration for half-maximal inhibition (IC50) worked out at 1.3 nM. Under `COc1cc(C)c(C)cc1C1CN(c2nc(-c3ccncn3)cc(=O)n2C)CCO1` (stereo not shown) [Compound B246] stands 1.1 nM; under `Cn1c(N2CCOC(c3ccc(F)cc3OCC3CC3)C2)nc(-c2ccncn2)cc1=O` (stereo not shown) [Compound B247], 15 nM.

In the case of `COc1ccc(C#N)cc1C1CN(c2nc(-c3ccncn3)cc(=O)n2C)CCO1` (stereo not shown) [Compound B248], the IC50 is 0.78 nM.

`COc1cc(Cl)ccc1C1CN(c2nc(-c3ccncn3)cc(=O)n2C)CCO1` (stereo not shown) [Compound B249]: the IC50 is 0.83 nM. Under `COc1cc(F)cc(F)c1C1CN(c2nc(-c3ccncn3)cc(=O)n2C)CCO1` (stereo not shown) [Compound B250] stands 0.56 nM. With `Cn1c(N2CCOC(c3noc4ccccc34)C2)nc(-c2ccncn2)cc1=O` (stereo not shown) [Compound B251], the IC50 is 2.4 nM.

`Cn1c(N2CCO[C@@H](c3noc4ccccc34)C2)nc(-c2ccncn2)cc1=O` [Compound B252] displayed an IC50 of 1 nM. As to `COc1cc(C#N)ccc1C1CN(c2nc(-c3ccncn3)cc(=O)n2C)CCO1` (stereo not shown) [Compound B253], the IC50 turned out to be 0.7 nM.

For `COc1cc(F)cc(F)c1[C@H]1CN(c2nc(-c3ccncn3)cc(=O)n2C)CCO1` [Compound B254], half-maximal inhibition (IC50) required 0.24 nM. Take `COc1ccc(-c2ccc(F)cc2)cc1C1CN(c2nc(-c3ccncn3)cc(=O)n2C)CCO1` (stereo not shown) [Compound B255]: the IC50 worked out at 4.6 nM.

Consider `COc1ccc(-c2cccnc2)cc1C1CN(c2nc(-c3ccncn3)cc(=O)n2C)CCO1` (stereo not shown) [Compound B256], for which the IC50 was found to be 0.64 nM. As for `Cn1c(N2CCOC(c3ccc(F)cc3O)C2)nc(-c2ccncn2)cc1=O` (stereo not shown) [Compound B257], the IC50 came to 7.4 nM.

Consider `COc1cc(-c2ccccc2)ccc1C1CN(c2nc(-c3ccncn3)cc(=O)n2C)CCO1` (stereo not shown) [Compound B258], for which the IC50 was determined as 1.4 nM. Under `COc1ccc(N2CCCC2)cc1C1CN(c2nc(-c3ccncn3)cc(=O)n2C)CCO1` (stereo not shown) [Compound B259] stands 1.2 nM; under `COc1cc(N2CCCC2)ccc1C1CN(c2nc(-c3ccncn3)cc(=O)n2C)CCO1` (stereo not shown) [Compound B260], 0.77 nM; under `COc1ccc(-c2ccccc2F)cc1C1CN(c2nc(-c3ccncn3)cc(=O)n2C)CCO1` (stereo not shown) [Compound B261], 1.4 nM. As to `COc1cccc(-c2ccc(OC)c(C3CN(c4nc(-c5ccncn5)cc(=O)n4C)CCO3)c2)c1` (stereo not shown) [Compound B262], the midpoint of inhibition, the IC50, lay at 1.3 nM.

Compound `COc1ccc(-c2ccc(Cl)cc2Cl)cc1C1CN(c2nc(-c3ccncn3)cc(=O)n2C)CCO1` (stereo not shown) [Compound B263] gave an IC50 of 13 nM. Regarding `COc1ccc(CN2CCCC2)cc1C1CN(c2nc(-c3ccncn3)cc(=O)n2C)CCO1` (stereo not shown) [Compound B264], the IC50 is 0.6 nM. `COc1ccc(-c2cccc(F)c2)cc1C1CN(c2nc(-c3ccncn3)cc(=O)n2C)CCO1` (stereo not shown) [Compound B266]: the IC50 was determined as 1.6 nM. On to `COc1ccccc1-c1ccc(OC)c(C2CN(c3nc(-c4ccncn4)cc(=O)n3C)CCO2)c1` (stereo not shown) [Compound B267], for which the concentration for half-maximal inhibition (IC50) came out at 1.2 nM.

On to `COc1ccc(-c2ccc(OC)c(C3CN(c4nc(-c5ccncn5)cc(=O)n4C)CCO3)c2)cc1` (stereo not shown) [Compound B268], for which half-maximal inhibition (IC50) was put at 1.7 nM. For `COc1ccc(Nc2ccccc2)cc1C1CN(c2nc(-c3ccncn3)cc(=O)n2C)CCO1` (stereo not shown) [Compound B269], 1.1 nM corresponded to half-maximal inhibition (IC50).

The compound `Cn1c(N2CCOC(c3ccc(F)cc3OCc3ccccc3)C2)nc(-c2ccncn2)cc1=O` (stereo not shown) [Compound B270] registered an IC50 of 27 nM. Regarding `Cn1c(N2CCOC(c3cc4ccccc4o3)C2)nc(-c2ccncn2)cc1=O` (stereo not shown) [Compound B271], 4.2 nM corresponded to half-maximal inhibition (IC50).

`Cn1c(N2CCO[C@@H](c3cc4ccccc4o3)C2)nc(-c2ccncn2)cc1=O` [Compound B272]: the midpoint of inhibition, the IC50, lay at 7.1 nM.

As for `COc1cccc2cc(C3CN(c4nc(-c5ccncn5)cc(=O)n4C)CCO3)oc12` (stereo not shown) [Compound B273], the IC50 is 4.3 nM.

Turning to `COc1ccc(-c2cccc(CN3CCCC3)c2)cc1C1CN(c2nc(-c3ccncn3)cc(=O)n2C)CCO1` (stereo not shown) [Compound B274], the IC50 stood at 0.57 nM.

Compound `COc1cc(-c2ccccc2F)ccc1C1CN(c2nc(-c3ccncn3)cc(=O)n2C)CCO1` (stereo not shown) [Compound B277] displayed an IC50 of 1.4 nM. Take `COc1cc(-c2cccc(F)c2)ccc1C1CN(c2nc(-c3ccncn3)cc(=O)n2C)CCO1` (stereo not shown) [Compound B278]: half-maximal inhibition (IC50) required 1.1 nM.
